System: Fall Army Worm, Spodoptera frupperda
Test: Larvae feeding on transgenic Arabidopsis plants, mortality
Assay type: in vivo
Conditions: relative to control plants
Description: The mortality of moth larvae species was assayed examining the feeding of the three genotypes of transgenic plants relative to each other and relative to wild-type plant controls. An initial result indicates extremely high expression levels of the B.t. and B.t.B expressed from the ACTIN 2 A2pt cassette can be achieved. […] Cry1Ac (plant line Cry1#31, Table 2). The mortality of Fall Army Worm, Spodoptera frupperda, which is 100-fold less sensitive to Cry1Ac, was assayed feeding on these plants.

## B.t. Cry1Ac: Bacillus thuringiensis toxin Cry1Ac expressed in transgenic Arabidopsis from A2pt::Cry1Ac (SEQ ID NO: 1)
  killing of the Fall Army Worm feeding on transgenic plants: weak killing activity

From US20110263487A1, “Plant Production and Delivery System for Recombinant Proteins as Protein-Flour or Protein-Oil Compositions” (University of Georgia Research Foundation, Inc., priority 2007, published 2011)
